Experimental data from publication PMC8318231, “Rate-of-Kill (RoK) assays to triage large compound sets for Chagas disease drug discovery: Application to GSK Chagas Box” (PLoS Neglected Tropical Diseases, 2021).

Legend:
[1] = system: T. cruzi intracellular amastigotes in H9c2 cells; assay: Rate-of-Kill (RoK) high-content imaging assay, amastigotes per cell (AM/CELL) and curve descriptors; format: cell-based, Trypanosoma cruzi; parameters: key to ME_24h / ME_48h / ME_72h: % reduction in parasite burden (cidal response); t50pct_MCC50 / t50pct_Cmax: unit not given here; conditions: for ME_24h: 24h; for ME_48h: 48h; for ME_72h: 72h; for AM/CELL NORM: sheet figure 4 A; for tlag_Cmax / t50pct_Cmax / t50%_Cmax: at Cmax; for ME_24h (%): maximum effect at 24 h; for ME_24h (%) / ME_48h (%) / ME_72h (%): RoK assay; for ME_48h (%): maximum effect at 48 h; for ME_72h (%): maximum effect at 72 h; for ME 24h (maximum effect at 24 hours, intracellular amastigotes): maximum percentage of parasite burden reduction reached by any concentration
Outline: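 H9c2 cardiomyocytes infected with T. cruzi trypomastigotes (MOI 8, 18 h), then compounds tested at 5 μM single shot or 11-point 1/3 dilution from 50 μM. DRAQ5-stained nuclei imaged over a time course. Amastigotes per cell normalised to infected cells at 4 h (0%) and non-infected cells (100%).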

TcCYP51 = conditions: formerly reported; cited from earlier work
[2] = system: T. cruzi Tulahuen trypomastigotes; assay: T. cruzi trypomastigote assay (Cell Titer-Glo viability, ATP luminescence); format: cell-based, Trypanosoma cruzi; conditions: for Trypomastigotes pIC50 48 hours: 48 hours incubation; for Trypomastigotes pIC50 48 hours / Trypomastigotes pIC50 72 hours: pIC50 = -log10 IC50 in molar units; for Trypomastigotes pIC50 72 hours: 72 hours incubation; for 72 pIC50 (trypomastigotes, raw data of Fig 1D): 72 hours, plotted values, censored values given without sign; for 48 pIC50 / 72 pIC50: trypomastigote assay; for 48 pIC50: 48 h; for 72 pIC50: 72 h
Outline: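 Tulahuen trypomastigotes from infected LLC-MK2 culture supernatants (days 5–8) plated at 5 × 10^4 per well in DMEM/2% FBS with compound at 5 μM single-shot final or in dose response. Viability by CellTiter-Glo ATP luminescence after 10 min at room temperature, normalised to no-cell (100%) and DMSO (0%) controls.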

SMILES | ME_24h ([1]; figure 5) | ME_48h ([1]; figure 5) | ME_72h ([1]; figure 5) | MCCE ([1]; RoK curve descriptor) [µM] | AM/CELL NORM ([1]; Time 4) | AM/CELL NORM ([1]; Time 24) | AM/CELL NORM ([1]; Time 48) | AM/CELL NORM ([1]; Time 72) | tlag_Cmax [1] [h] | t50pct_Cmax ([1]; figure 5) | tlag_Cmax ([1]; figure 5) | t50pct_MCC50 ([1]; at MCC50, figure 5) | tlag_MCC50 ([1]; at MCC50, figure 5) | MCCE ([1]; figure 5) | ME_24h (%) [1] [%] | ME_48h (%) [1] [%] | ME_72h (%) [1] [%] | ME 24h (maximum effect at 24 hours, intracellular amastigotes) [1] [%] | CYP51 pIC50 (TcCYP51) | Trypomastigotes pIC50 48 hours [2] | also measured
c1ccc2c(CCOc3nccnc3-c3ccncc3)c[nH]c2c1 [TCMDC-143562] | -24.9705 | 30.5632 | 12.8696 | 0.2 | -8.107 | -35.3498 | 30.5632 | -2.217 | 24.0 | 72 | 24 | 72 | 72 | 0.2058 | -25.0 | 30.6 | 12.9 | -24.9705 | 7.2 | 4.4 | MCC50 ([1]; figure 5): 50 µM; Trypomastigotes pIC50 72 hours [2]: 4.5
O=C(Nc1ccc(Br)c(Cl)c1)Nc1ccc2c(c1)OCO2 [TCMDC-143588] | 4.143 | 11.8076 | -0.7061 | 5.6 | 16.6619 | 4.143 | 11.8076 | -47.3133 | 24.0 | 72 | 24 | 72 | 72 | 5.556 | 4.1 | 11.8 | -0.7 | 4.143 | < 4 | 5.5 | MCC50 ([1]; figure 5): 50 µM; Trypomastigotes pIC50 72 hours [2]: < 4.3
COc1cccc(C(=O)[C@H]2C[C@@H]2CN(Cc2cccnc2)Cc2cccnc2)c1 [TCMDC-143593] | -243.773 | -91.7284 | 36.534 | 0.02 | -1.514 | -270.363 | -91.7284 | -0.04888 | 24.0 | 72 | 24 | 72 | 72 | 0.02286 | -243.8 | -91.7 | 36.5 | -243.773 | 7.2 | 5.2 | MCC50 ([1]; figure 5): 50 µM; Trypomastigotes pIC50 72 hours [2]: < 4.3
Clc1ccc(Sc2cnccc2N2CCOCC2)cc1 [TCMDC-143602] | -12.5205 | -29.081 | 15.6088 | 0.2 | 3.934 | -12.5205 | -29.081 | -95.1907 | 72.0 | 72 | 72 | 72 | 72 | 0.2058 | -12.5 | -29.1 | 15.6 | -12.5205 | 7.5 | 4.5 | MCC50 ([1]; figure 5): 50 µM; Trypomastigotes pIC50 72 hours [2]: < 4.3
N#Cc1cc(N2CCCC2=O)ccc1Sc1ccccc1CO [TCMDC-143604] | -55.9743 | 36.5881 | 78.1794 | 0.6 | 9.146 | -84.052 | 29.3818 | 78.3167 | 24.0 | 72 | 24 | 72 | 24 | 0.6173 | -56.0 | 36.6 | 78.2 | -55.4036 | 4.7 | < 4.3 | MCC50 ([1]; RoK curve descriptor): 1.9 µM; t50%_Cmax [1]: 72.0 h; t50%_MCC50 ([1]; at MCC50): 72.0 h; tlag_MCC50 ([1]; at MCC50): 24.0 h; MCC50 ([1]; figure 5, in µM): 1.852; Trypomastigotes pIC50 72 hours [2]: < 4.3; 72 pIC50 (trypomastigotes, raw data of Fig 1D) [2]: < 4.3; 48 pIC50 ([2]; figure 1A): < 4.3; 72 pIC50 ([2]; figure 1A): < 4.3; 72 pIC50 ([2]; figure 1B): < 4.3
CCCc1nc2nc(N)nc(N)c2cc1CC [TCMDC-143606] | 41.1896 | 50.5934 | 54.3499 | 0.2 | 30.5298 | 50.9144 | 56.204 | 55.305 | 4.0 | 48 | 4 | 48 | 4 | 0.2058 | 41.2 | 50.6 | 54.4 | 50.9144 | < 4 | 5.9 | MCC and MCCE values (in words) [1]: low MCC and MCCE values; ME (maximum effect) in RoK assay (in words) [1]: high ME value; tlag times [1]: 4 h; MCC50 ([1]; RoK curve descriptor): 25.9 µM; t50%_Cmax [1]: 60.0 h; t50%_MCC50 ([1]; at MCC50): 48.0 h; tlag_MCC50 ([1]; at MCC50): 4.0 h; MCC50 ([1]; figure 5, in µM): 25.9259; Trypomastigotes pIC50 72 hours [2]: 5.8
COc1ccccc1-c1c(C)[nH]c2nc(N)nc(C)c12 [TCMDC-143610] | 50.657 | 69.1206 | 72.4769 | 0.3 | 4.093 | 33.8882 | 64.2982 | 71.534 | 4.0 | 54 | 4 | 48 | 4 | 0.3086 | 44.7 | 65.4 | 70.3 | 71.8108 | 4.1 | 6.4 | ME (maximum effect) in RoK assay (in words) [1]: high values in ME at the different times; tlag (in words) [1]: short tlag; MCC50 ([1]; RoK curve descriptor): 2.4 µM; t50%_Cmax [1]: 48.0 h; t50%_MCC50 ([1]; at MCC50): 52.8 h; tlag_MCC50 ([1]; at MCC50): 4.0 h; MCC50 ([1]; figure 5, in µM): 1.543; activity in trypomastigotes assay (in words) ([2]; 48 and 72 hours): active; Trypomastigotes pIC50 72 hours [2]: 6.5
CCCCNc1nccc(-c2c(-c3ccc(F)cc3)nn3c(N4CCOCC4)cccc23)n1 [TCMDC-143617] | -170.943 | -538.575 | -488.335 | 5.6 | -16.0226 | -225.539 | -1143.86 | -2417.88 | 72.0 | 72 | 72 | 72 | 72 | 5.556 | -170.9 | -538.6 | -488.3 | -170.943 | < 4 | 5.1 | MCC50 ([1]; figure 5): 50 µM; Trypomastigotes pIC50 72 hours [2]: < 4.3
CN(C)CCOc1ccc(N2CCN(S(=O)(=O)c3ccc(Cl)cc3)CC2)cc1 [TCMDC-143622] | 11.982 | 63.0909 | 72.2951 | 1.9 | 6.264 | 11.982 | 63.0909 | 55.0876 | 4.0 | 48 | 4 | 72 | 24 | 1.852 | 12.0 | 63.1 | 72.3 | 11.982 | 4.6 | < 4.3 | MCC50 ([1]; RoK curve descriptor): 1.9 µM; t50%_Cmax [1]: 48.0 h; t50%_MCC50 ([1]; at MCC50): 72.0 h; tlag_MCC50 ([1]; at MCC50): 24.0 h; MCC50 ([1]; figure 5, in µM): 1.852; Trypomastigotes pIC50 72 hours [2]: < 4.3; 72 pIC50 (trypomastigotes, raw data of Fig 1D) [2]: < 4.3; 48 pIC50 ([2]; figure 1A): < 4.3; 72 pIC50 ([2]; figure 1A): < 4.3; 72 pIC50 ([2]; figure 1B): < 4.3
